From the supplement of paper PMC10307832

Key:
Assay in all cases: relative viability (nuclei count vs DMSO), 5 days (fraction); higher = more cells survive
Serdemetan + OSI-027 = compound: c1ccc2c(CCNc3ccc(Nc4ccncc4)cc3)c[nH]c2c1 [Serdemetan] + COc1cccc2cc(-c3nc([C@H]4CC[C@H](C(=O)O)CC4)n4ncnc(N)c34)[nH]c12 [OSI-027] (partner 0.5 µM)
Procedure, shortened: (§1)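 Lung cancer cell lines, seeded in 1536-well plates, were treated the following day by pin tool with a single drug or with five library-drug doses (not always all listed) in √10 steps on top of a fixed anchor-drug dose. Cells were fixed and nuclei stained in one step after 5 days, and nuclei were counted. Relative viability is the nuclei count for treated wells divided by that for vehicle wells, reported as medians of duplicate plates.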

Serdemetan + Linsitinib = compound: c1ccc2c(CCNc3ccc(Nc4ccncc4)cc3)c[nH]c2c1 [Serdemetan] + C[C@]1(O)C[C@@H](c2nc(-c3ccc4ccc(-c5ccccc5)nc4c3)c3c(N)nccn32)C1 [Linsitinib] (partner 1 µM)
Procedure, shortened: as §1

Serdemetan + Alpelisib = compound: c1ccc2c(CCNc3ccc(Nc4ccncc4)cc3)c[nH]c2c1 [Serdemetan] + Cc1nc(NC(=O)N2CCC[C@H]2C(N)=O)sc1-c1ccnc(C(C)(C)C(F)(F)F)c1 [Alpelisib] (partner 2 µM)
Procedure, shortened: as §1

Serdemetan + Vorinostat = compound: c1ccc2c(CCNc3ccc(Nc4ccncc4)cc3)c[nH]c2c1 [Serdemetan] + O=C(CCCCCCC(=O)Nc1ccccc1)NO [Vorinostat] (partner 1 µM)
Procedure, shortened: as §1

Cell Line | relative viability (Serdemetan + OSI-027; first compound 0.04 µM) | relative viability (Serdemetan + OSI-027; first compound 0.1265 µM) | relative viability (Serdemetan + OSI-027; first compound 0.4 µM) | relative viability (Serdemetan + OSI-027; first compound 1.265 µM) | relative viability (Serdemetan + OSI-027; first compound 4 µM) | relative viability (Serdemetan + Linsitinib; first compound 0.04 µM) | relative viability (Serdemetan + Linsitinib; first compound 0.1265 µM) | relative viability (Serdemetan + Linsitinib; first compound 0.4 µM) | relative viability (Serdemetan + Linsitinib; first compound 1.265 µM) | relative viability (Serdemetan + Linsitinib; first compound 4 µM) | relative viability (Serdemetan + Alpelisib; first compound 0.04 µM) | relative viability (Serdemetan + Alpelisib; first compound 0.1265 µM) | relative viability (Serdemetan + Alpelisib; first compound 0.4 µM) | relative viability (Serdemetan + Alpelisib; first compound 1.265 µM) | relative viability (Serdemetan + Alpelisib; first compound 4 µM) | relative viability (Serdemetan + Vorinostat; first compound 0.04 µM) | relative viability (Serdemetan + Vorinostat; first compound 0.1265 µM) | relative viability (Serdemetan + Vorinostat; first compound 0.4 µM) | relative viability (Serdemetan + Vorinostat; first compound 1.265 µM) | relative viability (Serdemetan + Vorinostat; first compound 4 µM)
NCI-H441 | 0.581 | 0.802 | 0.622 | 0.347 | 0.441 | 0.454 | 0.608 | 0.532 | 0.289 | 0.325 | 0.85 | 0.678 | 0.803 | 0.524 | 0.513 | 0.795 | 0.71 | 0.765 | 0.479 | 0.436
LCLC-103H | 0.431 | 0.551 | 0.479 | 0.537 | 0.406 | 0.81 | 1.06 | 1.09 | 0.918 | 0.778 | 0.944 | 0.957 | 0.923 | 0.844 | 0.764 | 0.759 | 0.852 | 0.773 | 0.75 | 0.779
LCLC-97TM1 | 0.371 | 0.553 | 0.412 | – | 0.528 | 0.211 | 0.172 | 0.186 | 0.12 | 0.181 | 0.258 | 0.203 | 0.241 | 0.225 | 0.202 | 0.803 | 0.713 | 0.667 | 0.433 | 0.398
NCI-H727 | 0.69 | 0.681 | 0.567 | 0.466 | 0.499 | 0.286 | 0.238 | 0.28 | 0.124 | 0.191 | 0.597 | 0.522 | 0.593 | 0.487 | 0.418 | 1.3 | 1.12 | 1.12 | 1.28 | 0.849
NCI-H1355 | 0.465 | 0.452 | 0.35 | 0.35 | 0.382 | 0.82 | 0.711 | 0.746 | 0.75 | 0.683 | 0.952 | 0.786 | 0.752 | 0.875 | 0.774 | 0.654 | 0.688 | 0.632 | 0.617 | 0.541
HOP-62 | 0.869 | 0.842 | 0.856 | 0.71 | 0.758 | 1.02 | 0.934 | 0.968 | 0.738 | 0.47 | 0.966 | 0.914 | 0.947 | 0.76 | 0.841 | 0.702 | 0.713 | 0.881 | 0.36 | 0.406
NCI-H2085 | 0.701 | 0.702 | 0.593 | 0.61 | 0.764 | 0.939 | 0.901 | 0.836 | 0.621 | 0.581 | 0.952 | 0.911 | 0.801 | 0.573 | 0.585 | 0.761 | 0.776 | 0.695 | 0.484 | 0.524
